The values that follow come from patent US10544147B2, “Purine inhibitors of human phosphatidylinositol 3-kinase delta” (MERCK SHARP & DOHME CORP., priority 2016, dated 2020).

One assay addresses PI3Kdelta (Homo sapiens (Human), UniProt O00329). Description: HTRF PI3K biochemical assay, delta isoform. The conditions noted are these: 0.3 nM enzyme, 100 uM ATP, 50 uM PIP2; form screened (neutral or TFA salt). The protocol: (§1) HTRF PI3K Biochemical Assay to Measure Intrinsic Potency of Compound Inhibitors
(§2) This loss of signal is nonlinear with respect to both increasing product and time. This non-linear detection will impact accuracy of IC50 calculations; therefore, there is a need for a correction factor to obtain more accurate IC50 values. This correction is derived from a PIP3 standard curve run in a separate assay plate. All data were calculated using the ratio of acceptor (APC) to donor (Europium) fluorescence in each well of the assay plate. […] An IC50 was then calculated fitting the % inhibition data to the equation: % inhibition=min+(Max−min)/1+([inhibitor]/IC50)^n) where min is the % inhibition with inhibitor, max is the signal in DMSO control, and n is the Hill slope.
(§3) The biological data was collected using the methodology described above.
In general terms: In TR-FRET formats the signal depends on donor and acceptor labels being close together.

For the next assay, the target named is PI3Kalpha (Homo sapiens (Human), UniProt P42336). Description: HTRF PI3K biochemical assay, alpha isoform (selectivity versus delta). The settings on record: ratio PI3K-alpha IC50 value/PI3K-delta IC50 value. The protocol:
as §1, §2, §3
The determination of relative selectivity for a given compound is defined as the relative ratio of the (PI3K-alphaIC50 value/PI3K-delta IC50 value).

For orientation: IC50 means the concentration that inhibits the measured activity by half.

PI3Kalpha, sequence (P42336 whole entry, canonical isoform): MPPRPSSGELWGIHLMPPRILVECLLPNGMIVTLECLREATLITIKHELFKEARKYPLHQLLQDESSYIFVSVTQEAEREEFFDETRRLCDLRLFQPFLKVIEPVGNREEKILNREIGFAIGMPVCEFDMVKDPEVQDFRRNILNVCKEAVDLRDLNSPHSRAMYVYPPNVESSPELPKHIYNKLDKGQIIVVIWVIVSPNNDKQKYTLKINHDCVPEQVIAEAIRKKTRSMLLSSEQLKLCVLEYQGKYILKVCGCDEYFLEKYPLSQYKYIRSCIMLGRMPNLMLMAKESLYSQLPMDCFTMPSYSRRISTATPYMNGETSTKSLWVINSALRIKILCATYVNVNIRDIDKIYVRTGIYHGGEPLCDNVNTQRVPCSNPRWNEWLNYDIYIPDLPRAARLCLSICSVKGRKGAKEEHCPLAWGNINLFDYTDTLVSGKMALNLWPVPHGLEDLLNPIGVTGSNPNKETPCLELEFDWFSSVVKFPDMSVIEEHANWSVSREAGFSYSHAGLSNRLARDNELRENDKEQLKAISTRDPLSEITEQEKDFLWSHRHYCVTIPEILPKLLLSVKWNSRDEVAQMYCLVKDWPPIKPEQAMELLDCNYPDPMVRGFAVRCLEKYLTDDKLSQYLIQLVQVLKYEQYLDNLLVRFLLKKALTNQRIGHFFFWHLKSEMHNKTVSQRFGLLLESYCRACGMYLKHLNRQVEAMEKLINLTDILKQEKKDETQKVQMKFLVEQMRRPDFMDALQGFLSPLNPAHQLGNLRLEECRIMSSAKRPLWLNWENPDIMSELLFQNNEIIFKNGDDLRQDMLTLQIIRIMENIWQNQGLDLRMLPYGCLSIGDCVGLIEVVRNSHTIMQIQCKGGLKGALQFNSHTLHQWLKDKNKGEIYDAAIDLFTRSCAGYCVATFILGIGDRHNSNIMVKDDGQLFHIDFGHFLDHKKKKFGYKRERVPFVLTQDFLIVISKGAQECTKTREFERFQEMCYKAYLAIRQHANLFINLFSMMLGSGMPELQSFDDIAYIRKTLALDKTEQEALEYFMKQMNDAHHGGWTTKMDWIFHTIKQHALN
PI3Kalpha, sequence (P27986 whole entry partner, canonical isoform): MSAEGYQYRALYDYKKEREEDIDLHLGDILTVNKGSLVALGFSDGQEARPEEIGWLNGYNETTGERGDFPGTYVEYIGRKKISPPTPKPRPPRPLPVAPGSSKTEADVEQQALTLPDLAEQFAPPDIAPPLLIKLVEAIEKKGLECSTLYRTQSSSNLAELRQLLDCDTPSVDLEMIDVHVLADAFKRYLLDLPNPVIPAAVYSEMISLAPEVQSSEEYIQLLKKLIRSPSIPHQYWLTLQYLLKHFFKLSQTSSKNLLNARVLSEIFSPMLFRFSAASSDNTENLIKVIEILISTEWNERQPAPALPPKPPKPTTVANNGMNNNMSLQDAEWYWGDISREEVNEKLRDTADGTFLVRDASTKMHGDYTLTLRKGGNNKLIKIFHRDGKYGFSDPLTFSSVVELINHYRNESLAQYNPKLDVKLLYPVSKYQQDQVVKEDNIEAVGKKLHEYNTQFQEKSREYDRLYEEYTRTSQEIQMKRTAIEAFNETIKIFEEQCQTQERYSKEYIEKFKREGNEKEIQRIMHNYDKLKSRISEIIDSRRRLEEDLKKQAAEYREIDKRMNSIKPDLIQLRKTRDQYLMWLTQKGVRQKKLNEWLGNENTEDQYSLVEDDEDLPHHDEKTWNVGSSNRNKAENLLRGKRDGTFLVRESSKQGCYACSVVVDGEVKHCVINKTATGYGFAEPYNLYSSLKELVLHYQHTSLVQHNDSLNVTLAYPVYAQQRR
PI3Kdelta, sequence (O00329 whole entry, canonical isoform): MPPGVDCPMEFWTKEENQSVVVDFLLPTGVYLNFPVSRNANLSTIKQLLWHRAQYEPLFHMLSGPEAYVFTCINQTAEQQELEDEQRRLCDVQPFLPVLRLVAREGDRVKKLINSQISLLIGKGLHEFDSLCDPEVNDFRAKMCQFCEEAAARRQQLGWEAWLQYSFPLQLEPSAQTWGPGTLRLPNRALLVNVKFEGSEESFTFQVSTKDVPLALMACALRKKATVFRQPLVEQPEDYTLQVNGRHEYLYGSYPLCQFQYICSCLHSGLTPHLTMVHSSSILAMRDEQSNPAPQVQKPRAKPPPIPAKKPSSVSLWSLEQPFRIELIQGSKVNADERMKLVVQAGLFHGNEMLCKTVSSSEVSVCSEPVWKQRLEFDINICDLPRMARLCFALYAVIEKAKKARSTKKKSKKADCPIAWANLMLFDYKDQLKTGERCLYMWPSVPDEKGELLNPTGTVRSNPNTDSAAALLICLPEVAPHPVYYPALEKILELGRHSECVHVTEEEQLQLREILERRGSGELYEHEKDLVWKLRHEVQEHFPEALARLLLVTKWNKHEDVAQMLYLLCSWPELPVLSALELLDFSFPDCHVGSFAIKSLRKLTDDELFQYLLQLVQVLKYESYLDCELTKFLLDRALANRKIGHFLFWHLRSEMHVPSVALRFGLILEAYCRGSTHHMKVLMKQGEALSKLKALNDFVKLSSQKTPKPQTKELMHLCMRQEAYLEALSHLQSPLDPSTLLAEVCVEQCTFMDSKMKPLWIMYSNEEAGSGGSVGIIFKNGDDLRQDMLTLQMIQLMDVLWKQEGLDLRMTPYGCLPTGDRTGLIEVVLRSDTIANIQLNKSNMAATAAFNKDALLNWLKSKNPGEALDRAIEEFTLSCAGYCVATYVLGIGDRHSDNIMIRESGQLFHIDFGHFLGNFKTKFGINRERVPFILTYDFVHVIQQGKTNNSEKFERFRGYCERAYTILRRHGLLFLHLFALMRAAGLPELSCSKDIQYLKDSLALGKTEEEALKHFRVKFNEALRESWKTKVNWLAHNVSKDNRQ
PI3Kdelta, sequence (P27986 whole entry partner, canonical isoform): as the sequence (P27986 whole entry partner, canonical isoform) above

In the case of `CCn1c(-c2cnc(C)nc2)nc2c(-c3ccc4c(c3)C(C)(N(C)C(C)C)C(=O)N4)ncnc21` (racemic) [Compound 2-15, (R and S)-5-[9-ethyl-8-(2-methylpyrimidin-5-yl)-9H-purin-6-yl]-3-methyl-3-[methyl(1-methylethyl)amino]-1,3-dihydro-2H-indol-2-one], the IC50 at PI3Kdelta stood at 46 nM. In addition, on PI3Kalpha, the “Relative Selectivity versus PI3Kalpha” value is over 10.

For the compound `CCn1c(-c2cnc(C)nc2)nc2c(-c3ccc4c(c3)C(C)(NCCOC)C(=O)N4)ncnc21` (racemic) [Compound 2-16, (R and S)-5-[9-ethyl-8-(2-methylpyrimidin-5-yl)-9H-purin-6-yl]-3-[(2-methoxyethyl)amino]-3-methyl-1,3-dihydro-2H-indol-2-one], on PI3Kdelta, the IC50 amounted to 43 nM. Also, the “Relative Selectivity versus PI3Kalpha” value at PI3Kalpha was over 10.

Regarding `CCn1c(-c2cnc(C)nc2)nc2c(-c3ccc4c(c3)C(C)(N[C@H](C)C3CCC3)C(=O)N4)ncnc21` (mixture of isomers) [Compound 2-17, 3-{[(1R)-1-cyclobutylethyl]amino}-5-[9-ethyl-8-(2-methylpyrimidin-5-yl)-9H-purin-6-yl]-3(R and S)-methyl-1,3-dihydro-2H-indol-2-one], the IC50 at PI3Kdelta came out at 10 nM. Moreover, the “Relative Selectivity versus PI3Kalpha” value at PI3Kalpha is recorded as over 10.

As to `CCn1c(-c2cnc(C)nc2)nc2c(-c3ccc4c(c3)C(C)(NCC3(C)CCC3)C(=O)N4)ncnc21` (racemic) [Compound 2-18, (R and S)-5-[9-ethyl-8-(2-methylpyrimidin-5-yl)-9H-purin-6-yl]-3-methyl-3-{[(1-methylcyclobutyl)methyl]amino}-1,3-dihydro-2H-indol-2-one], the half-maximal inhibitory concentration (IC50) at PI3Kdelta is 8 nM. Moreover, the “Relative Selectivity versus PI3Kalpha” value on PI3Kalpha is over 10.

As to `CCn1c(-c2cnc(C)nc2)nc2c(-c3ccc4c(c3)C(C)(NCC3(C#N)CCC3)C(=O)N4)ncnc21` (racemic) [Compound 2-19, (R and S)-1-[({5-[9-ethyl-8-(2-methylpyrimidin-5-yl)-9H-purin-6-yl]-3-methyl-2-oxo-2,3-dihydro-1H-indol-3-yl}amino)methyl]cyclobutane-carbonitrile], at PI3Kdelta, the IC50 turned out to be 22 nM. In addition, the “Relative Selectivity versus PI3Kalpha” value on PI3Kalpha is over 10.

With `CCn1c(-c2cnc(C)nc2)nc2c(-c3ccc4c(c3)C(C)(NCC3CCC3)C(=O)N4)ncnc21` (racemic) [Compound 2-20, (R and S)-3-[(cyclobutylmethyl)amino]-5-[9-ethyl-8-(2-methylpyrimidin-5-yl)-9H-purin-6-yl]-3-methyl-1,3-dihydro-2H-indol-2-one], the IC50 at PI3Kdelta worked out at 23 nM. In addition, the “Relative Selectivity versus PI3Kalpha” value at PI3Kalpha is over 10.

On to `CCn1c(-c2cnc(C)nc2)nc2c(-c3ccc4c(c3)C(C)(NC[C@@H]3CCCO3)C(=O)N4)ncnc21` (mixture of isomers) [Compound 2-21, 5-[9-ethyl-8-(2-methylpyrimidin-5-yl)-9H-purin-6-yl]-3(R and S)-methyl-3-{[(2S)-tetrahydrofuran-2-ylmethyl]amino}-1,3-dihydro-2H-indol-2-one], for which the IC50 on PI3Kdelta turned out to be 22 nM. The “Relative Selectivity versus PI3Kalpha” value at PI3Kalpha was over 10.

As to `CCn1c(-c2cnc(C)nc2)nc2c(-c3ccc4c(c3)C(C)(NC[C@H]3CCCO3)C(=O)N4)ncnc21` (mixture of isomers) [Compound 2-22, 5-[9-ethyl-8-(2-methylpyrimidin-5-yl)-9H-purin-6-yl]-3(R and S)-methyl-3-{[(2R)-tetrahydrofuran-2-ylmethyl]amino}-1,3-dihydro-2H-indol-2-one], the IC50 on PI3Kdelta came out at 26 nM. In addition, on PI3Kalpha, the “Relative Selectivity versus PI3Kalpha” value is recorded as over 10.

`CCn1c(-c2cnc(C)nc2)nc2c(-c3ccc4c(c3)C(C)(N3CCOCC35CCC5)C(=O)N4)ncnc21` (racemic) [Compound 2-23, (R and S)-5-[9-ethyl-8-(2-methylpyrimidin-5-yl)-9H-purin-6-yl]-3-methyl-3-(8-oxa-5-azaspiro[3.5]non-5-yl)-1,3-dihydro-2H-indol-2-one]: the IC50 on PI3Kdelta came to 7 nM. Besides, at PI3Kalpha, the “Relative Selectivity versus PI3Kalpha” value is given as over 10.

Take `CCn1c(-c2cnc(C)nc2)nc2c(-c3ccc4c(c3)C(C)(N3CCn5nccc5C3)C(=O)N4)ncnc21` (racemic) [Compound 2-24, (R and S)-3-(6,7-dihydropyrazolo[1,5-a]pyrazin-5(4H)-yl)-5-[9-ethyl-8-(2-methylpyrimidin-5-yl)-9H-purin-6-yl]-3-methyl-1,3-dihydro-2H-indol-2-one]: the IC50 on PI3Kdelta turned out to be 67 nM. In addition, the “Relative Selectivity versus PI3Kalpha” value on PI3Kalpha is over 10.

For `CCn1c(-c2cnc(C)nc2)nc2c(-c3ccc4c(c3)C(C)(NC3CCOCC3)C(=O)N4)ncnc21` (racemic) [Compound 2-25, (R and S)-5-[9-ethyl-8-(2-methylpyrimidin-5-yl)-9H-purin-6-yl]-3-methyl-3-(tetrahydro-2H-pyran-4-ylamino)-1,3-dihydro-2H-indol-2-one], the half-maximal inhibitory concentration (IC50) at PI3Kdelta was 28 nM. In addition, the “Relative Selectivity versus PI3Kalpha” value on PI3Kalpha is over 10.

In the case of `CCn1c(-c2cnc(C)nc2)nc2c(-c3ccc4c(c3)C(C)(N3C[C@H]5C[C@@H]3CO5)C(=O)N4)ncnc21` (mixture of isomers) [Compound 2-26, 5-[9-ethyl-8-(2-methylpyrimidin-5-yl)-9H-purin-6-yl]-3(R and S)-methyl-3-[(1R,4R)-2-oxa-5-azabicyclo[2.2.1]hept-5-yl]-1,3-dihydro-2H-indol-2-one], on PI3Kdelta, the IC50 turned out to be 58 nM. Also, on PI3Kalpha, the “Relative Selectivity versus PI3Kalpha” value is over 10.

As to `CCn1c(-c2cnc(C)nc2)nc2c(-c3ccc4c(c3)C(C)(N[C@@H](C)C3CCC3)C(=O)N4)ncnc21` (mixture of isomers) [Compound 2-27, 3-{[(1S)-1-cyclobutylethyl]amino}-5-[9-ethyl-8-(2-methylpyrimidin-5-yl)-9H-purin-6-yl]-3(R and S)-methyl-1,3-dihydro-2H-indol-2-one], at PI3Kdelta, the IC50 came to 13 nM. Further, on PI3Kalpha, the “Relative Selectivity versus PI3Kalpha” value was over 10.

With `CCn1c(-c2cnc(C)nc2)nc2c(-c3ccc4c(c3)C(C)(N3CC5(CCOC5)C3)C(=O)N4)ncnc21` (racemic) [Compound 2-28, (R and S)-5-[9-ethyl-8-(2-methylpyrimidin-5-yl)-9H-purin-6-yl]-3-methyl-3-(6-oxa-2-azaspiro[3.4]oct-2-yl)-1,3-dihydro-2H-indol-2-one], on PI3Kdelta, the IC50 was 49 nM. For the same compound, the “Relative Selectivity versus PI3Kalpha” value on PI3Kalpha is over 10.

In the case of `CCn1c(-c2cnc(C)nc2)nc2c(-c3ccc4c(c3)C(C)(CC(C)C)C(=O)N4)ncnc21` (single isomer, unassigned) [Compound 1-1, 5-(9-Ethyl-8-(2-methylpyrimidin-5-yl)-9H-purin-6-yl)-3-isobutyl-3-methylindolin-2-one], at PI3Kdelta, the IC50 was found to be 4 nM. Besides, the “Relative Selectivity versus PI3Kalpha” value at PI3Kalpha is given as over 10.

In the case of `CCn1c(-c2cnc(C)nc2)nc2c(-c3ccc4c(c3)C(C)(CC(C)C)C(=O)N4)ncnc21` (single isomer, unassigned) [Compound 1-2, 5-(9-Ethyl-8-(2-methylpyrimidin-5-yl)-9H-purin-6-yl)-3-isobutyl-3-methylindolin-2-one], the IC50 at PI3Kdelta was determined as 121 nM. Also, the “Relative Selectivity versus PI3Kalpha” value on PI3Kalpha is listed as over 10.

In the case of `CCn1c(-c2cnc(C)nc2)nc2c(-c3ccc4c(c3)C(C)(CC3(C)COC3)C(=O)N4)ncnc21` (single isomer, unassigned) [Compound 1-5, (R or S)-5-[9-ethyl-8-(2-methylpyrimidin-5-yl)-9H-purin-6-yl]-3-methyl-3-[(3-methyloxetan-3-yl)methyl]-1,3-dihydro-2H-indol-2-one], on PI3Kdelta, the IC50 stood at 177 nM. For the same compound, on PI3Kalpha, the “Relative Selectivity versus PI3Kalpha” value worked out at 3.

Take `CCn1c(-c2cnc(C)nc2)nc2c(-c3ccc4c(c3)C(C)(CC3(C)COC3)C(=O)N4)ncnc21` (single isomer, unassigned) [Compound 1-6, (R or S)-5-[9-ethyl-8-(2-methylpyrimidin-5-yl)-9H-purin-6-yl]-3-methyl-3-[(3-methyloxetan-3-yl)methyl]-1,3-dihydro-2H-indol-2-one]: the IC50 on PI3Kdelta stood at 15 nM. The “Relative Selectivity versus PI3Kalpha” value at PI3Kalpha is over 10.

As to `CCn1c(-c2cnc(C)nc2)nc2c(-c3ccc4c(c3)C(C)(CC3CC3)C(=O)N4C)ncnc21` (single isomer, unassigned) [Compound 1-9, 3-(Cyclopropylmethyl)-5-(9-ethyl-8-(2-methylpyrimidin-5-yl)-9H-purin-6-yl)-1,3-dimethylindolin-2-one], the IC50 at PI3Kdelta was determined as 17 nM. On PI3Kalpha, the “Relative Selectivity versus PI3Kalpha” value was over 10.

Consider `CCn1c(-c2cnc(C)nc2)nc2c(-c3ccc4c(c3)C(C)(CC3CC3)C(=O)N4C)ncnc21` (single isomer, unassigned) [Compound 1-10, 3-(Cyclopropylmethyl)-5-(9-ethyl-8-(2-methylpyrimidin-5-yl)-9H-purin-6-yl)-1,3-dimethylindolin-2-one], for which, at PI3Kdelta, the IC50 amounted to 194 nM. The “Relative Selectivity versus PI3Kalpha” value on PI3Kalpha is recorded as over 10.

As for `CCn1c(-c2cnc(C)nc2)nc2c(-c3cnc4c(c3)C(C)(CC(C)C)C(=O)N4)ncnc21` (single isomer, unassigned) [Compound 1-12, 5-(9-ethyl-8-(2-methylpyrimidin-5-yl)-9H-purin-6-yl)-3-isobutyl-3-methyl-1,3-dihydro-2H-pyrrolo[2,3-b]pyridin-2-one], the IC50 at PI3Kdelta was 9 nM. On PI3Kalpha, the “Relative Selectivity versus PI3Kalpha” value is listed as over 10.

On to `CCn1c(-c2cnc(C)nc2)nc2c(-c3cnc4c(c3)C(C)(CC(C)C)C(=O)N4)ncnc21` (single isomer, unassigned) [Compound 1-13, 5-(9-ethyl-8-(2-methylpyrimidin-5-yl)-9H-purin-6-yl)-3-isobutyl-3-methyl-1,3-dihydro-2H-pyrrolo[2,3-b]pyridin-2-one], for which, on PI3Kdelta, the IC50 stood at 370 nM. At PI3Kalpha, the “Relative Selectivity versus PI3Kalpha” value is given as over 10.
